From patent US11690814B2, “Suplatast tosilate for use in the treatment of cough associated with interstitial lung disease” (Conrig Pharma ApS, priority 2016, dated 2023)
Entries after “also recorded” stand apart in the source; their conditions may differ. Read-outs that look alike come from different tables or passages of the source.

What was measured:
[1] = system: guinea pigs (enalapril plus citric acid induced cough); conditions: Zhou et al 2015; cited from earlier work
Atopic cough = conditions: after four weeks of treatment; cited from earlier work
[2] = system: guinea-pigs (airway cough hypersensitivity, allergic eosinophilic inflammation); conditions: cited from earlier work
[3] = system: refractory chronic dry cough following lung cancer surgery; conditions: cited from earlier work
[4] = system: bleomycin-treated guinea pigs (capsaicin inhalation-induced cough); experiment: 30 uM capsaicin cough challenge on bleomycin-treated animals (pre-clinical model of pulmonary fibrosis); type: in vivo, guinea pig; conditions: for inhibition at 30 mg/kg: Cavia porcellus, ip; for mean cough, 10 min exposure: bleomycin-treated (14 days after 8 U/kg intratracheal), 30 mg/kg i.p. 30 min before 30 uM capsaicin, vehicle 52.9; for mean cough, 10 min exposure / mean cough, 5 min observation / mean cough, 10 + 5 min: n=14-16; for antitussive effect (conclusion in words): bleomycin-treated animals, capsaicin challenge; for mean cough, 5 min observation: 5 min post-exposure period, vehicle 22.4; for mean cough, 10 + 5 min: vehicle 75.3
Description: (§1) The study was conducted as described in example 2, with the following exceptions. The bleomycin-induced cough modes is described J. A. Fernandez-Blanco et al: Clinical Science (2015) 129, 1001-1010).
(§2) The objective of the present study was to evaluate the potential anti-tussive effect of suplatast tosilate on capsaicin inhalation-induced cough on naïve and bleomycin-treated guinea pigs.
(§3) Male guinea pigs 300-350 g bodyweight (Harlan MD, distributed by INNOVO Ltd., Hungary) were used. The animals were housed in individually ventilated cabinets in a temperature-controlled and ventilated environment (21-23° C.) with a 12-hour light-dark cycle. Water and standard ascorbic acid containing guinea pig chow were provided ad libitum. The protocol has been approved by the Hungarian Food Chain Safety and Animal Health Directorate (PEI/001/3083-6/2014) and was carried out in accordance with European Directive 86/609/EEC.
(§4) Suplatast tosilate (racemate) and reference compound codeine were dissolved in saline ([…]) at 15 mg/mL concentration. Suplatast tosilate was administered intraperitoneally at 30 mg/kg dose (2 ml/kg b.d.w. volume from the […] solution) 30 min before capsaicin challenge. Codeine is a known cough suppressant.
(§5) Three experimental groups were involved in this study: Vehicle, suplatast tosilate and codeine treated groups. Each group contained n=16 guinea pigs. Altogether, 48 guinea pigs were used for this study.
(§6) On day 0 the naïve animals were treated i.p. either with codeine or suplatast tosilate. 30 min later the cough challenge was applied. 14 days later the animals were anaesthetized by ketamin/xilazine/acepromazine 10/2/0.1 mg/kg at 1 mL/kg i.m. The trachea was prepared and 8 U/kg bodyweight (1 mL/kg volume in sterile saline) bleomycin was injected slowly into the trachea. The wound was closed by sutures. 14 days after bleomycin injection the animals were treated with the test molecules and exposed to capsaicin spray again.
(§7) The capsaicin cough-challenge protocol was applied both on day 0 naïve animals and on day 28 on bleomycin treated animals. The guinea pigs were exposed to 30 μM capsaicin spray 30 min after the test item administration. The 30 μM capsaicin spray was generated by a compressed air nebulizer (DeVilbiss Pulmoaid) connected to a transparent chamber (6.7 l volume). Compressed air with a flow of 0.16 l/s and pressure of 0.5 bar produced the spray. The capsaicin vapour penetrated into the chamber through a short tube driven by constant air flow. The animals were put into a transparent chamber individually and exposed to the capsaicin (30 μM capsaicin was diluted by water from 10^-2 M alcoholic capsaicin stock solution) aerosol for 10 minutes. The number of coughs during the 10 min inhalation period and the subsequent 5 min was counted. The coughing of the animals was defined as a strong contraction of abdomen which was followed by forced expiration through the opened mouth of the animals. Two trained technicians monitored in parallel the exposed animals and counted the cough numbers independently from each-others.
(§8) The cough numbers in each group were expressed as median and inter quartile range on the figures and mean±SD on tables. The percentage antitussive effect was also calculated.

[5] = Solubility in dosing vehicle; type: physicochemical; conditions: 10% PEG400/saline mixture; 30 mg/mL dosing solution
Description: The vehicle for suplatast tosilate was 10% PEG400/saline mixture. Suplatast tosilate was well soluble in this mixture. ST was administered intraperitoneally at 30 mg/kg dose (1 ml/kg b.d.w. volume from the 30 mg/mL solution/suspension) 30 min before citric acid challenge. 6 guinea pigs were included in the vehicle group and in the ST group.
The vehicle for suplatast tosilate (ST) is 10% PEG400/saline mixture. ST is well soluble in this mixture. ST is administered intraperitoneally at 30 mg/kg dose (1 ml/kg b.d.w. volume from the 30 mg/mL solution/suspension) 30 min before citric acid challenge. 6 guinea pigs were included in the vehicle and in the ST groups.

[6] = system: patients with Cough Variant Asthma; conditions: cited from earlier work
[7] = system: naive guinea pigs (capsaicin inhalation-induced cough); experiment: 30 uM capsaicin cough challenge on naive animals; type: in vivo, guinea pig; conditions: for inhibition at 30 mg/kg: Cavia porcellus, ip; for mean cough, 10 min exposure: 30 mg/kg i.p. 30 min before 30 uM capsaicin, vehicle 9.3; for mean cough, 10 min exposure / mean cough, 5 min observation / mean cough, 10 + 5 min: n=16; for mean cough, 5 min observation: 5 min post-exposure period, vehicle 2.4; for mean cough, 10 + 5 min: vehicle 11.7; for antitussive effect (conclusion in words): capsaicin challenge
Description: as §1, §2, §3, §4, §5, §6, §7, §8

[8] = system: patients with non-atopic asthma or chronic bronchitis; conditions: cited from earlier work
[9] = system: guinea pigs (enalapril plus citric acid induced cough); experiment: Cough induced by enalapril plus citric acid in guinea pigs; type: in vivo, guinea pig; conditions: 30 mg/kg i.p. 30 min before 10% citric acid spray; enalapril 1.3 mg/kg s.c.; whole 8-min observation; mean±S.E.M.; n=6; vehicle 11.2±2.6
Description: as §3, with “The method is described in detail by Zhou et al: Pharmacology. 2015; 95(1-2): 36-41. In brief: Male” for “Male”, “open cages” for “individually ventilated cabinets”
The enalapril maleate was dissolved in sterile saline (Salsol infusion, Teva) at 1.3 mg/mL concentration and was applied subcutaneously at 1.3 mg/kg dose (1 mL/kg b.d.w. volume from the 1.3 mg/mL solution) 30 min before vehicle, suplatast tosilate or administration. […]
The guinea pigs were exposed to 10% citric acid spray 30 min after the test item administration. […] The number of coughs during the 3 min inhalation period and the subsequent 5 min was counted. […] The sound of the cough was monitored by a microphone connected to a loudspeaker placed into the cough chamber. A trained technician monitored the exposed animals and counted the cough numbers.
The average cough numbers in each group was expressed as mean±S.E.M. The percentage antitussive effect was also calculated.

[10] = system: Idiopathic Pulmonary Fibrosis (IPF); conditions: cited from earlier work
[11] = system: patients receiving the drug; conditions: cited from earlier work
[12] = bleomycin-treated, 30 mg/kg i.p.
[13] = bleomycin-treated, 30 mg/kg i.p., whole 15-min observation
[14] = naive animals, 30 mg/kg i.p., whole 15-min observation
[15] = 5 min, read-out: Percentage inhibition (antitussive effect), 5 min observation
[16] = 10 min, read-out: Percentage inhibition (antitussive effect), 10 min exposure
[17] = read-out: Percentage inhibition (antitussive effect), 10 + 5 min

Which “effect on citric acid+enalapril induced cough” value [1] does the source give for `CCOCC(O)COc1ccc(NC(=O)CC[S+](C)C)cc1.Cc1ccc(S(=O)(=O)[O-])cc1` (racemic) [Suplatast tosilate, (±)-3-{[4-(3-ethoxy-2-hydroxypropoxy)phenyl]amino}-3-oxopropyl)(dimethyl)sulfonium; 4-methylbenzenesulfonate] here?
Its value is “reduce citric acid+enalapril induced cough”.

What about the “effect on cough threshold” value (Atopic cough) of the same compound?
The value was “decreasing cough threshold”.

What about the “acute effect on capsaicin induced cough” value ([2]; acute administration, airway allergy guinea-pig model) of the same compound?
The value was “does not acutely reduce capsaicin induced cough”.

What about the “effect on airway cough hypersensitivity” value ([2]; sub-chronic administration, allergic eosinophilic inflammation, listed as ST) of the same compound?
The value was “reduce airway cough hypersensitivity; also recorded: inhibiting airway cough hypersensitivity”.

What about the “effect on refractory chronic dry cough” value [3] of the same compound?
The value was “benefit refractory chronic dry cough”.

And the inhibition at 30 mg/kg ([4]; 5 min, bleomycin-treated, 30 mg/kg i.p., post-exposure period, versus vehicle, read-out: Percentage inhibition (antitussive effect), 5 min observation)?
Its inhibition at 30 mg/kg is 77.7%.

What about the inhibition at 30 mg/kg ([4]; 10 min, bleomycin-treated, 30 mg/kg i.p., versus vehicle, read-out: Percentage inhibition (antitussive effect), 10 min exposure) of the same compound?
Its inhibition at 30 mg/kg is 42.8%.

What about the inhibition at 30 mg/kg ([4]; bleomycin-treated, 30 mg/kg i.p., whole 15-min observation, versus vehicle, read-out: Percentage inhibition (antitussive effect), 10 + 5 min) of the same compound?
The inhibition at 30 mg/kg was 53.2%.

And the “mean cough, 10 min exposure” value [4]?
Its value is 30.3.

And the “antitussive effect (conclusion in words)” value ([4]; 30 mg/kg i.p.)?
Its value is “relevant and statistically significant antitussive effect”.

And the “mean cough, 5 min observation” value [4, 12]?
The value was 5.

And the “mean cough, 10 + 5 min” value [4, 13]?
Its value is 35.3.

What about the solubility in vehicle [5] of the same compound?
The solubility in vehicle was “well soluble”.

And the “effect on cough in capsaicin challenge” value [6]?
The value was “improving cough”.

What about the inhibition at 30 mg/kg ([7]; 5 min, naive animals, 30 mg/kg i.p., post-exposure period, versus vehicle, read-out: Percentage inhibition (antitussive effect), 5 min observation) of the same compound?
Its inhibition at 30 mg/kg is -51.9%.

And the inhibition at 30 mg/kg ([7]; 10 min, naive animals, 30 mg/kg i.p., versus vehicle, read-out: Percentage inhibition (antitussive effect), 10 min exposure)?
The inhibition at 30 mg/kg was -5.4%.

What about the inhibition at 30 mg/kg ([7]; naive animals, 30 mg/kg i.p., whole 15-min observation, versus vehicle, read-out: Percentage inhibition (antitussive effect), 10 + 5 min) of the same compound?
Its inhibition at 30 mg/kg is -15%.

And the “mean cough, 10 min exposure” value ([7]; naive animals)?
Its value is 9.8.

And the “mean cough, 5 min observation” value ([7]; naive animals, 30 mg/kg i.p.)?
Its value is 3.7.

What about the “Percentage inhibition (antitussive effect), 5 min observation” value ([7]; naive animals, 30 mg/kg i.p., post-exposure period, versus vehicle, 30 mg/kg) of the same compound?
Its value is “did not show antitussive effect”.

And the “Percentage inhibition (antitussive effect), 10 min exposure” value ([7]; naive animals, 30 mg/kg i.p., versus vehicle, 30 mg/kg)?
The value was “did not show antitussive effect”.

And the “mean cough, 10 + 5 min” value [7, 14]?
The value was 13.4.

And the “antitussive effect (conclusion in words)” value ([7]; naive animals, 30 mg/kg i.p.)?
Its value is “did not show antitussive effect”.

And the “effect on cough reflex sensitivity” value [8]?
The value was “does not change the cough reflex sensitivity”.

What about the cough number [9] of the same compound?
Its cough number is 7.2±2.8.

Which results are given for `COc1ccc2c3c1O[C@H]1[C@@H](O)C=C[C@H]4[C@@H](C2)N(C)CC[C@@]341` [Codeine, codeine]?
inhibition at 30 mg/kg [4, 15]: 76.2%; inhibition at 30 mg/kg [4, 16]: 72.9%; inhibition at 30 mg/kg [4, 17]: 73.9%; mean cough, 10 min exposure [4]: 14.3; antitussive effect (conclusion in words) ([4]; 30 mg/kg i.p.): showed antitussive effect; mean cough, 5 min observation [4, 12]: 5.3; mean cough, 10 + 5 min [4, 13]: 19.7; inhibition at 30 mg/kg [7, 15]: 97.4%; inhibition at 30 mg/kg [7, 16]: 43.9%; inhibition at 30 mg/kg [7, 17]: 55%; mean cough, 10 min exposure ([7]; naive animals): 5.2; mean cough, 5 min observation ([7]; naive animals, 30 mg/kg i.p.): 0.1; mean cough, 10 + 5 min [7, 14]: 5.3; antitussive effect (conclusion in words) ([7]; naive animals, 30 mg/kg i.p.): showed antitussive effect

Which results are given for `COC(=O)c1ccc2c(c1)NC(=O)/C2=C(\Nc1ccc(N(C)C(=O)CN2CCN(C)CC2)cc1)c1ccccc1` [Ofev (nintedanib), nintedanib]?
effect on decline of lung function [10]: slow the decline of lung function; effect on mortality and lung function [10]: has not been shown to reduce mortality or improve lung function

With `CCCCc1oc2ccccc2c1C(=O)c1cc(I)c(OCCN(CC)CC)c(I)c1` [amiodarone] as the compound, how does the “patients who get pulmonary fibrosis” value [11] read?
Its value is “up to 40%”.

Which “patients who get pulmonary fibrosis” value [11] does the source give for `O=C1CN(/N=C/c2ccc([N+](=O)[O-])o2)C(=O)N1` [nitrofurantoin] here?
The value was 0.01%.
